Here are results for eight compounds from ChEMBL document CHEMBL1201862, “PubChem BioAssay data set” (2004).

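The compound was tested at five concentrations on cells cultured in 96-well plates, with a 48-hour exposure period. GI50 = concentration required for 50% inhibition of growth.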 Active and inactive are the calls of the source. No stated cut-off is given here; in the data, active = GI50 up to about 1.1 µM and inactive = higher. Where only a bound is given, the exact number is not on record here.

Some test systems named below: MOLT-4; HOP-62; 786-0; SN12C; NCI-H23; UACC-257; SR; NCI-H460; UO-31; TK-10; KM12; NCI-H226; HCT-116; M14; NCI/ADR-RES; SNB-75; OVCAR-3; HT-29; DLD-1.
Test in all cases: NCI-60 cell line screen, 48 h

As for `Clc1cc(OCc2nn3c(Cc4ccccc4)nnc3s2)c(Cl)cc1OCc1nn2c(Cc3ccccc3)nnc2s1`, the GI50 is 3.77 µM (inactive) in the assay with MOLT-4; 33.3 µM (inactive) with HOP-62; 33.7 µM (inactive) in the assay on 786-0; > 100 µM (inactive) with SN12C; 23.9 µM (inactive) in the assay on NCI-H23; > 100 µM (inactive) in the assay on UACC-257. The GI50 in the assay with SR is 0.541 µM (active); in the assay with NCI-H460 it was > 100 µM (inactive); with UO-31 it was 47.8 µM (inactive); with TK-10 it was 29.9 µM (inactive); in the assay with KM12, > 100 µM (inactive); in the assay with NCI-H226, > 100 µM (inactive). For the same compound, the GI50 was 77.1 µM (inactive) in the assay with HCT-116; > 100 µM (inactive) in the assay on M14; 16 µM (inactive) with NCI/ADR-RES; 1.32 µM (inactive) in the assay on SNB-75; 33.3 µM (inactive) with OVCAR-3; 76.6 µM (inactive) with HT-29.

With `O=C1OCOC2(CCCC2)C1c1ccccc1` (stereo unspecified), the GI50 in the assay on MOLT-4, in the assay on HOP-62, in the assay on 786-0, in the assay with SN12C, with NCI-H23 and in the assay on UACC-257 was > 100 µM (inactive) in each case. Further, the GI50 in the assay with SR, with NCI-H460, in the assay on UO-31, in the assay with TK-10, in the assay with KM12 and with NCI-H226 was > 100 µM (inactive) each time. Besides, the GI50 in the assay with HCT-116, with M14, in the assay with NCI/ADR-RES, with SNB-75, with OVCAR-3 and in the assay with HT-29 was > 100 µM (inactive) each time.

Turning to `Brc1ccc2c(-c3nc(-c4c[nH]c5ccc(Br)cc45)cs3)c[nH]c2c1`, the GI50 in the assay on MOLT-4 was 2.46 µM (inactive); in the assay on HOP-62, 11.7 µM (inactive); in the assay on 786-0 it was 2.24 µM (inactive); with SN12C, 4.63 µM (inactive); in the assay with NCI-H23, 3.24 µM (inactive); in the assay on UACC-257, 8.75 µM (inactive). Besides, the GI50 in the assay on SR is 3.15 µM (inactive); in the assay with NCI-H460, 2.68 µM (inactive); in the assay with UO-31, 4.1 µM (inactive); with TK-10 it was 5.51 µM (inactive); in the assay on KM12, 2.62 µM (inactive); with NCI-H226, 1.94 µM (inactive). Further, the GI50 is 3.67 µM (inactive) with HCT-116; 3.92 µM (inactive) in the assay with M14; 4.56 µM (inactive) with NCI/ADR-RES; 14.5 µM (inactive) with SNB-75; 10.2 µM (inactive) in the assay on OVCAR-3; 1.86 µM (inactive) in the assay on HT-29.

Regarding `Nc1c(-c2cn(Cc3ccccc3)c3ccccc23)[n+]([O-])c2ccccc2[n+]1[O-]`, the GI50 is 16.8 µM (inactive) in the assay with MOLT-4; 30.7 µM (inactive) in the assay on 786-0; 31.8 µM (inactive) in the assay on SN12C; 22 µM (inactive) in the assay on NCI-H23; 12.8 µM (inactive) with UACC-257; 28.5 µM (inactive) in the assay with NCI-H460. In addition, the GI50 was 10.2 µM (inactive) with UO-31; 28.3 µM (inactive) in the assay on TK-10; 28.8 µM (inactive) in the assay with KM12; 6.35 µM (inactive) in the assay with NCI-H226; 25.4 µM (inactive) in the assay on M14; 16.4 µM (inactive) with SNB-75. In addition, the GI50 in the assay on OVCAR-3 is 19.8 µM (inactive); in the assay on HT-29 it was 27.2 µM (inactive); with DLD-1, 32.7 µM (inactive).

In the case of `CN(C)c1ccc(/C=C2\C[C@H]3[C@@H]4CC=C5C[C@@H](O)CC[C@]5(C)[C@H]4CC[C@]3(C)[C@H]2O)cc1`, the GI50 was 32 µM (inactive) with MOLT-4; 29.4 µM (inactive) in the assay with HOP-62; 18.1 µM (inactive) in the assay with 786-0; 12.8 µM (inactive) with SN12C; 15.9 µM (inactive) in the assay on NCI-H23; 18.2 µM (inactive) in the assay with UACC-257. For the same compound, the GI50 in the assay on SR is 21 µM (inactive); in the assay with NCI-H460 it was 14.4 µM (inactive); in the assay with UO-31, 19.3 µM (inactive); with TK-10, 18.5 µM (inactive); in the assay on KM12, 36 µM (inactive); in the assay on NCI-H226, 17.4 µM (inactive). For the same compound, the GI50 was 6.59 µM (inactive) in the assay on HCT-116; 18.2 µM (inactive) in the assay on M14; 18.4 µM (inactive) with NCI/ADR-RES; 29.2 µM (inactive) in the assay with SNB-75; 22.5 µM (inactive) in the assay with OVCAR-3; 8.09 µM (inactive) with HT-29.

On to `Cc1ccc(-c2ccc3c(c2)Sc2ccccc2O3)n1C`, for which the GI50 was 0.822 µM (active) in the assay with MOLT-4; 0.614 µM (active) in the assay with HOP-62; 0.553 µM (active) with 786-0; 0.306 µM (active) in the assay on SN12C; 0.908 µM (active) in the assay on NCI-H23; 19.5 µM (inactive) with UACC-257. Further, the GI50 is 0.0675 µM (active) in the assay on SR; 0.327 µM (active) in the assay on NCI-H460; 0.67 µM (active) with UO-31; 0.627 µM (active) in the assay with TK-10; 0.257 µM (active) in the assay on KM12; 19.9 µM (inactive) with NCI-H226. In addition, the GI50 with HCT-116 is 0.167 µM (active); in the assay with M14 it was 0.371 µM (active); with NCI/ADR-RES it was 0.206 µM (active); with SNB-75, 0.238 µM (active); in the assay with OVCAR-3 it was 0.373 µM (active); with HT-29 it was 0.213 µM (active).

As to `CO[C@@H]1C=C[C@@]23c4cc5c(cc4C(O)N(CC2O)C3C1)OCO5` (stereo partly specified), the GI50 in the assay with MOLT-4 was 2.82 µM (inactive); in the assay with HOP-62 it was 4.43 µM (inactive); in the assay with 786-0 it was 3.21 µM (inactive); with SN12C, 4.15 µM (inactive); with NCI-H23 it was 4.29 µM (inactive); in the assay with UACC-257 it was 1.86 µM (inactive). For the same compound, the GI50 in the assay on SR was 4 µM (inactive); in the assay with NCI-H460, 2.84 µM (inactive); with UO-31, 3.68 µM (inactive); with TK-10, 4.19 µM (inactive); with KM12, 2.62 µM (inactive); in the assay with NCI-H226 it was 36.5 µM (inactive). Besides, the GI50 with HCT-116 is 2.97 µM (inactive); with M14 it was 3.14 µM (inactive); with NCI/ADR-RES it was 13.9 µM (inactive); in the assay on SNB-75 it was 2.82 µM (inactive); with OVCAR-3, 4.86 µM (inactive); with HT-29, 3 µM (inactive).

As to `CCOC(=O)CCC(NC(=O)c1ccc(Oc2nc3c(N)cc(C(F)(F)F)cc3nc2-c2ccccc2)cc1)C(=O)OCC` (stereo unspecified), the GI50 was > 100 µM (inactive) in the assay with MOLT-4; 6.98 µM (inactive) in the assay on HOP-62; 3.42 µM (inactive) in the assay on 786-0; 45.9 µM (inactive) with SN12C; 21.3 µM (inactive) in the assay with NCI-H23; > 27.9 µM (inactive) in the assay with UACC-257. In addition, the GI50 is 9.95 µM (inactive) in the assay with SR; 54.3 µM (inactive) in the assay on NCI-H460; 70 µM (inactive) with UO-31; 14.6 µM (inactive) in the assay with TK-10; 19.5 µM (inactive) in the assay on KM12; 2.76 µM (inactive) in the assay with NCI-H226. Also, the GI50 in the assay on HCT-116 was 2.14 µM (inactive); in the assay with M14 it was 47 µM (inactive); in the assay with NCI/ADR-RES, 1.34 µM (inactive); in the assay with SNB-75, 5.05 µM (inactive); with OVCAR-3 it was 3.53 µM (inactive); in the assay on HT-29 it was 2.43 µM (inactive).
